Bounds are passed on as bounds.

Common to all, as to format: cell-based
In one assay the target is T1, PLU1 (KDM5B) (Homo sapiens, UniProt Q9UGL1).
T1 construct: (1-752); host or cells: U2OS
T1 sequence (Q9UGL1 1-752): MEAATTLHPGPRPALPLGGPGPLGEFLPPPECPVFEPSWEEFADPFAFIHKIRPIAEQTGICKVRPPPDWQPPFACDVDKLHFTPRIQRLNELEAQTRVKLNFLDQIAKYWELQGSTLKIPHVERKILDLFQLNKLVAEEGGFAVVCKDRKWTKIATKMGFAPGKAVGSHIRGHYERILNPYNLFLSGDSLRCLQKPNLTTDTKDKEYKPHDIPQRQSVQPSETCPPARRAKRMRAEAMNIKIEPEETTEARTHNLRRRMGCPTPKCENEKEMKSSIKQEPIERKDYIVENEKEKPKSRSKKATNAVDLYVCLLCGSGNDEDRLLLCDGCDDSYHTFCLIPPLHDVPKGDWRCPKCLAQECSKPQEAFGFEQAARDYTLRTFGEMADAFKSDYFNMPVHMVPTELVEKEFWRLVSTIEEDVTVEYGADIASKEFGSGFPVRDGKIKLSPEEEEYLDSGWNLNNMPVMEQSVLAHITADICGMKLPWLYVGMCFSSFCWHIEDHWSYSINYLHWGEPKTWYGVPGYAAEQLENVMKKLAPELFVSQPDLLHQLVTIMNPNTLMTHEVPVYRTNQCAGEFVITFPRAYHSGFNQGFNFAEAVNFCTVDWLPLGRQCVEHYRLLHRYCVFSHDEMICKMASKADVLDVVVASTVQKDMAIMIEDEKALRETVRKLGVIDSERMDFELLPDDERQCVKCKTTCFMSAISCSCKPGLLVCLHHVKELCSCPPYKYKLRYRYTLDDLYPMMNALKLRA
The assay is described as follows: Immunofluorescence assay in U2OS cells transfected with pCMVHA PLU1 (H3K4me2 mark). Particulars: 20 hours. The procedure:
U2OS cells were seeded 24 hours before transfection. Transfection was performed with Fugene HD transfection reagent as recommended by the manufacturer. 6 hours after transfection, the cells were harvested and seeded into multi well plates into media containing compound. The media used was DMEM containing 5% FBS and pen/strep. 20 hours after incubation of cells with compounds, the cells were washed once in PBS, harvested by fixation with formaldehyde 4% aqueous solution, and washed 2 times in PBS. Subsequently, the cells were permeabilized in PBS with 0.2% Triton X-100 for 10 min at room temperature. Blocking was performed in PBS with 0.2% Triton X-100 and 5% FBS for 45 min at room temperature. The cells were incubated with primary antibodies diluted 1 μg/ml in blocking solution over night at 4° C. The primary antibodies used in the assays were HA.11 (Covance, MMS-101P) and the antibody detecting the mark specified in the Table 6 below. After incubation with primary antibodies, the cells were washed 3 times with PBS, incubated with secondary antibodies diluted 1:1000 (Alexa fluor 594 goat anti rabbit IgG, Invitrogen, A11012; Alexa flour 488 donkey anti mouse IgG, Invitrogen, A21202) and Hoechst, 20 μg/ml (Sigma, 33342) in blocking solution, and washed again 3 times with PBS. Finally, PBS was added and high throughput imaging and analysis were performed by an IN Cell Analyzer 1000 (GE Healthcare). The robot software analyzed individual cells and divided these into HA^+ (transfected cells) and HA^− (non-transfected cells). The IC50 values in Table 7 below were based on an average measure of the staining of the mark specified in the Table 6 below in the transfected cells.

The subject of assay [1] is demethylation of H3K4 (H3K4me3 mark) in U2OS cells. Put plainly: Histone lysine demethylase immunofluorescence assay, non-transfected U2OS cells (H3K4me3 staining). Particulars: Homo sapiens, 20 hours. The procedure:
Histone Lysine Demethylase Immunofluorescence Assays for IC50 Value Determination, Non-Transfected Cells
U2OS cells were harvested and seeded into multi well plates into media containing compound. The media used was DMEM containing 5% FBS and pen/strep. 20 hours after incubation of cells with compounds, the cells were washed once in PBS, harvested by fixation with formaldehyde 4% aqueous solution, and washed 2 times in PBS. Subsequently, the cells were permeabilized in PBS with 0.2% Triton X-100 for 10 min at room temperature. Blocking was performed in PBS with 0.2% Triton X-100 and 5% FBS for 45 min at room temperature. The cells were incubated with αH3K4me3 primary antibody (Cell Signaling, #9751S) diluted 1:1000 in blocking solution over night at 4° C. After incubation with primary antibody, the cells were washed 3 times with PBS, incubated with secondary antibody diluted 1:1000 (Alexa fluor 594 goat anti rabbit IgG, Invitrogen, A11012) and Hoechst, 20 μg/ml (Sigma, 33342) in blocking solution, and washed again 3 times with PBS. Finally, PBS was added and high throughput imaging and analysis were performed by an IN Cell Analyzer 1000 (GE Healthcare). The IC50 values seen in Table 4 were based on an average measure of the staining of the H3K4me3 mark in cells.

The test system of a further assay is MCF7 cells. Put plainly: MCF7 cell proliferation assay (ATPlite). The settings on record: Homo sapiens, 120 hours. The procedure:
MCF7 cells were seeded at 1250 cells/well in 50 μl medium/well in black 96 well plates. Cells were incubated for 24 hours before addition of compound. Compounds were diluted in complete medium (50 μl/well) and added to the plates in duplicates. The total volume of medium in the wells was 100 μl, and the final concentration of DMSO 0.5%. Complete medium used was DMEM with GlutaMAX containing 10% FBS and pen/strep.
120 hours after addition of compounds, the plates were harvested and analyzed by ATPlite 1 Step (Perkin Elmer, cat no 6016739) according to the manufactures recommendation. Briefly, 100 μl ATP lite solution was added to each well, plates were vortexed at 700 rpm 2 minutes, followed by 20 minutes incubation in the dark, and then analyzed for luminescence on EnSpire 2300 Mulitilabel reader (Perkin Elmer). EC50 values were calculated using GraphPad Prism 6.
On the technique in general: ATP-based viability assays read luminescence as a measure of living cells.

Usually IC50 stands for the midpoint of a concentration-inhibition curve. A higher IC50 goes with weaker potency. The compound `CCN(CCC#N)C(=O)CNCc1cc(C(=O)O)ccn1` [drawing 320, 2-[({[(2-cyanoethyl)(ethyl)carbamoyl]methyl}amino)methyl] pyridine-4-carboxylic acid] gave an IC50 at PLU1 (KDM5B) of 1000 to 50000 nM. On the same count and under the same terms, under `CN(CCCCN(Cc1ccccc1)C1CC1)C(=O)CNCc1cc(C(=O)O)ccn1` [drawing 323] stands greater than 50000 nM. With `CCN(CCN(C)C)C(=O)CNCc1cc(C(=O)OCC(F)F)ccn1` [drawing 256, 2,2-difluoroethyl 2-{[({[2-(dimethylamino)ethyl](ethyl)carbamoyl}methyl)amino]methyl}pyridine-4-carboxylate], the IC50 in assay [1] was less than 1000 nM. Still for that read-out and setting: as for `CCOC(=O)Nc1ccc(COC(=O)c2ccnc(CNCCCCN(CC)CC)c2)cc1` [drawing 231, {4-[(ethoxycarbonyl)amino]phenyl}methyl 2-({[4-(diethylamino)butyl]amino}methyl) pyridine-4-carboxylate], the figure is less than 1000 nM; as for `CCOC(=O)c1ccccc1OC(=O)c1ccnc(CNCCCCN(CC)CC)c1` [drawing 228, 2-(ethoxycarbonyl)phenyl 2-({[4-(diethylamino)butyl]amino}methyl) pyridine-4-carboxylate], less than 1000 nM. In turn, `CCN(CCN(C)C)C(=O)CNCc1cc(C(=O)Oc2ccc(OC)cc2)ccn1` [drawing 234, 4-methoxyphenyl 2-{[({[2-(dimethylamino)ethyl](ethyl)carbamoyl}methyl)amino]methyl}pyridin-4-carboxylate] had an IC50 in assay [1] of less than 1000 nM. The same measure, in the same setting: under `CCOC(=O)c1ccccc1OC(=O)c1ccnc(CNCC(=O)N(CC)CCN(C)C)c1` [drawing 235, 2-(ethoxycarbonyl)phenyl 2-{[({[2-(dimethylamino)ethyl](ethyl)carbamoyl}methyl)amino]methyl}pyridine-4-carboxylate] stands less than 1000 nM; under `CCN(CCN(C)C)C(=O)CNCc1cc(C(=O)N2CCOC2=O)ccn1` [drawing 248, N-[2-(dimethylamino)ethyl]-N-ethyl-2-({[4-(2-oxo-1,3-oxazolidine-3-carbonyl)pyridin-2-yl]methyl}amino)acetamide], 1000 to 50000 nM; under `CCN(CCN(C)C)C(=O)CNCc1cc(C(=O)OCCF)ccn1` [drawing 255, 2-fluoroethyl 2-{[({[2-(dimethylamino)ethyl](ethyl)carbamoyl}methyl)amino]methyl}pyridine-4-carboxylate], less than 1000 nM. Take `CCCCN1CCCC1CCNCc1cc(C(=O)O)ccn1` (centres unmarked) [drawing 321, 2-({[2-(1-butylpyrrolidin-2-yl)ethyl]amino}methyl) pyridine-4-carboxylic acid]: the IC50 against PLU1 (KDM5B) lay within 1000 to 50000 nM.

As a reminder, the EC50 is the concentration that produces a half-maximal response. A higher EC50 goes with a need for much substance. Compound `CCOC(=O)c1ccccc1OC(=O)c1ccnc(CNCCCCN(CC)CC)c1` [drawing 270, 2-(ethoxycarbonyl)phenyl 2-({[4-(diethylamino)butyl]amino}methyl)pyridine-4-carboxylate] returned an EC50 in the assay with MCF7 cells of less than 1000 nM.

Consider `CCN(CCN(C)C)C(=O)CNCc1cc(C(=O)OC(C)CCN(C)C(=O)C(F)(F)F)ccn1` (centres unmarked) [drawing 281, 4-(2,2,2-trifluoro-N-methylacetamido)butn-2-yl 2-{[({[2-(dimethylamino)ethyl](ethyl)carbamoyl}methyl)amino]methyl}pyridine-4-carboxylate], for which the EC50 in the assay on MCF7 cells was less than 1000 nM. `CCN(CCN(C)C)C(=O)CNCc1cc(C(=O)N(C)S(C)(=O)=O)ccn1` [drawing 288, 2-{[({[2-(dimethylamino)ethyl](ethyl)carbamoyl}methyl)amino]methyl}-N-methanesulfonyl-N-methylpyridine-4-carboxamide] returned an EC50 with MCF7 cells of less than 1000 nM. The same measure, in the same setting: as for `CCN(CC)CCCCNCc1cc(C(=O)Oc2c(C)cccc2C)ccn1` [drawing 274, 2,6-dimethylphenyl 2-({[4-(diethylamino)butyl]amino}methyl)pyridine-4-carboxylate], the figure is less than 1000 nM.

In turn, `O=C(O)c1ccnc(CNCCCNCCOc2ccccc2)c1` [drawing 266, 2-[({3-[(2-phenoxyethyl)amino]propyl}amino)methyl] pyridine-4-carboxylic acid] registered an EC50 in the assay on MCF7 cells of 1000 to 50000 nM. Same read-out and setting: as for `CCN(CCN(C)C)C(=O)CNCc1cc(C(=O)Oc2ccc(OC)cc2)ccn1` [drawing 275, 4-methoxyphenyl 2-{[({[2-(dimethylamino)ethyl](ethyl)carbamoyl}methyl)amino]methyl}pyridine-4-carboxylate], the figure is 1000 to 50000 nM.

As for `CCCCCCCCCCCCCCCC(=O)OCC(COC(=O)CCCCCCCCCCCCCCC)OC(=O)c1ccnc(CNCC(=O)N(CC)CCN(C)C)c1` [drawing 285, 2-(2-{[({[2-(dimethylamino)ethyl](ethyl)carbamoyl}methyl)amino]methyl}pyridine-4-carbonyloxy)-3-(hexadecanoyloxy)propyl hexadecanoate], the EC50 with MCF7 cells was less than 1000 nM.

On to `CCN(CCN(C)C)C(=O)CNCc1cc(C(=O)OC)ccn1` [drawing 287, methyl 2-{[({[2-(dimethylamino)ethyl](ethyl)carbamoyl}methyl)amino]methyl}pyridine-4-carboxylate], for which the EC50 with MCF7 cells was less than 1000 nM. Same read-out and setting: under `CCN(CCN(C)C)C(=O)CNCc1cc(C(=O)OCC(F)F)ccn1` [drawing 295, 2,2-difluoroethyl 2-{[({[2-(dimethylamino)ethyl](ethyl)carbamoyl}methyl)amino]methyl}pyridine-4-carboxylate] stands less than 1000 nM. Same read-out and setting: under `CSCCNCc1cc(C(=O)O)ccn1` [drawing 258, 2-({[2-(methylsulfanyl)ethyl]amino}methyl)pyridine-4-carboxylic acid] stands 1000 to 50000 nM; under `C=CC(CCN(C)C(=O)C(F)(F)F)OC(=O)c1ccnc(CNCC(=O)N(CC)CCN(C)C)c1` (centres unmarked) [drawing 284, 5-(2,2,2-trifluoro-N-methylacetamido)pent-1-en-3-yl 2-{[({[2-(dimethylamino)ethyl](ethyl)carbamoyl}methyl)amino]methyl}pyridine-4-carboxylate], less than 1000 nM. In the assay on MCF7 cells, `CCN(CCN(C)C)C(=O)CNCc1cc(C(=O)Nc2ncco2)ccn1` [drawing 293, 2-{[({[2-(dimethylamino)ethyl](ethyl)carbamoyl}methyl)amino]methyl}-N-(1,3-oxazol-2-yl)pyridine-4-carboxamide] returned an EC50 of 1000 to 50000 nM. Turning to `CCN(CCN(C)C)C(=O)CNCc1cc(C(=O)OC(CNC(=O)C(F)(F)F)CC(=O)OC(C)C)ccn1` (centres unmarked) [drawing 290, propan-2-yl 3-(2-{[({[2-(dimethylamino)ethyl](ethyl)carbamoyl}methyl)amino]methyl}pyridine-4-carbonyloxy)-4-(trifluoroacetamido)butanoate], the EC50 in the assay with MCF7 cells lay in the range of 1000 to 50000 nM.

(Values after patent US10221139B2, “Inhibitors of histone demethylases” (Gilead Sciences, Inc., priority 2012, dated 2019).)
